Seven compounds from patent publication US20160355475A1, “NOVEL INDOLE DERIVATIVE COMPOUND AND PHARMACEUTICAL COMPOSITION COMPRISING THE SAME” (CHONG KUN DANG PHARMACEUTICAL CORP., priority 2014, published 2016) can be followed below.

In one data set the target is T1, HDAC1 (Homo sapiens, UniProt Q13547).
T1 construct: purchased Enzolifesciences BML-AK511
Kind of data set: HDAC1 enzyme activity inhibition (HDAC1 fluorimetric drug discovery assay kit). The data set is classed as biochemical. The note with it: 37° C., 60 minutes; tested at 100, 1000 and 10000 nM. The method, boiled down: (§1)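 Fluorimetric deacetylase assay using an HDAC1 kit and human recombinant HDAC6. Compounds tested at 100–10000 nM (HDAC1) or 0.1–1000 nM (HDAC6), reacted 60 min at 37 °C, then developer 30 min at 37 °C before fluorescence read. Values in μM.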

For the next data set, the target named is T2, HDAC6 human recombinant (Homo sapiens, UniProt Q9UBN7).
T2 construct: purchased Calbiochem 382180
T2 sequence (Q9UBN7 1-1215): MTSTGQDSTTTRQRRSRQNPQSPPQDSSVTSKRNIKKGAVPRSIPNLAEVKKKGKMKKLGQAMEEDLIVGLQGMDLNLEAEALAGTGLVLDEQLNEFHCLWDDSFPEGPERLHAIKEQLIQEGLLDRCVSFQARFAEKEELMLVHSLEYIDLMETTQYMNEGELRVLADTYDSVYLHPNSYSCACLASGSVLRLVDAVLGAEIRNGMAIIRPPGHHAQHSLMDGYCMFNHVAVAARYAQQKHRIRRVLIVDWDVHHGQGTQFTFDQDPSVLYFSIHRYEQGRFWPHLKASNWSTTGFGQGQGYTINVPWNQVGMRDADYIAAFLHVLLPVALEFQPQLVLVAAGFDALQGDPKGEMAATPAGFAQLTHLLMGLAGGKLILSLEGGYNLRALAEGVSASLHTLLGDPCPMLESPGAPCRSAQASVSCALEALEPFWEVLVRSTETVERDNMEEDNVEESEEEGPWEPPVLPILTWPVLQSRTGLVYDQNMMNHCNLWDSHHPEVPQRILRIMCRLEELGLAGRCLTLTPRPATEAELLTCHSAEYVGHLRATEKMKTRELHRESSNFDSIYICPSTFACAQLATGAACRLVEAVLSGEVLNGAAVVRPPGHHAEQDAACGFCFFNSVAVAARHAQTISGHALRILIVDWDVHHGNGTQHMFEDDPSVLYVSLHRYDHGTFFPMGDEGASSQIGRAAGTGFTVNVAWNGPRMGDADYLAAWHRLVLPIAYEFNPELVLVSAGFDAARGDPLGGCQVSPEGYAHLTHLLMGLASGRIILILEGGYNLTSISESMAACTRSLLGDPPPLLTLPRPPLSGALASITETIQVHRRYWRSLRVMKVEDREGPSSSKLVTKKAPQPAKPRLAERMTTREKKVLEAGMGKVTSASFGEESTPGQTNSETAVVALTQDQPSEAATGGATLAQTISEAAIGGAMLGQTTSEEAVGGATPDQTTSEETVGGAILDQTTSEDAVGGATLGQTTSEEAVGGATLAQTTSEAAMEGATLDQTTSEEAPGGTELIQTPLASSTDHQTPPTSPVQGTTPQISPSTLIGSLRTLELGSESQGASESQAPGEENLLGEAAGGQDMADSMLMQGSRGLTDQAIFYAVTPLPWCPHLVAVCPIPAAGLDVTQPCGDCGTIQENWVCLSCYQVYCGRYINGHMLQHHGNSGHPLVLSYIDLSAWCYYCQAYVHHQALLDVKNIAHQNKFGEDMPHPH
Kind of data set: HDAC6 enzyme activity inhibition (fluorimetric, in vitro). It counts as biochemical. The note with it: 37° C., 60 minutes; tested at 0.1, 1, 10, 100 and 1000 nM. The method, boiled down: as §1

Data set [1] is described as follows: Distribution in brain tissue and plasma of ICR mice after oral administration. The data set is classed as in vivo. As to conditions: mouse, 50 mg/kg PO, 0.5, 1 and 2 hours, LC-MS/MS, FIG. 2, read-out: concentration in the plasma tissue relative to that in the brain tissue. The protocol:
The distribution of the compound of the present invention in the brain tissue of ICR mice was examined. Specifically, the compound of the present invention was administered orally (PO) to ICR mice at a dose of 50 mg/kg. At 0.5, 1 and 2 hours after administration, blood was collected from the orbital venous plexus of the mice. After the mice were euthanized, the brain tissue (including cerebral, cerebellar and medullar tissues) was extracted.
The blood was centrifuged at 13000 rpm for 4 minutes, and then 30 μL of plasma was collected, and an organic solvent (90 wt % acetonitrile in methanol) was added thereto to remove protein. Then, the solution was centrifuged, and the supernatant was collected.
In addition, saline was added to the isolated brain tissue, and homogenized using a homogenizer. From the homogenized dilution, 100 μL of a sample was taken, and an organic solvent (90 wt % acetonitrile in methanol) was added thereto to remove protein, after which the solution was centrifuged, and the supernatant was collected. The concentrations of the compound of the present invention in the pretreated plasma and brain tissue solutions were analyzed by LC-MS/MS.

Data set [2] relates to histone acetylation (HDAC1). Description: Western blot of histone H3 and H4 acetylation in RPMI8226 cells. As to conditions: 24 hours, FIG. 1. It counts as cell-based. The procedure: (§2) Specifically, RPMI8226 cells were seeded into a six-well plate at a density of 1.0×10^6 cells/well, and then treated with varying concentrations of compound 528. After 24 hours, protein was extracted from the cells using RIPA buffer and quantified by the Bradford method. 25 μg of the protein was added to sample buffer and electrophoresed on 4-12% gradient gel, and the gel was transferred to a nitrocellulose membrane for 50 minutes. The membrane was blocked in 5% skim milk solution for 1 hour. Anti-acetyl H3 antibody (1:2,000), anti-acetyl H4 antibody (1:5,000), anti-acetyl tubulin antibody (1:5,000) and anti-β-actin antibody (1:10,000) were added to 5% skim milk, and the membrane was immersed in the skim milk and allowed to react at 4° C. for 16 hours, after which it was washed three times with 1×TBS-T for 10 minutes each washing. IgG-HRP antibody (1:5,000) was added to the 5% skim milk, and the membrane was immersed in the skim milk and allowed to react at room temperature for 40 minutes, after which it was washed three times with 1×TBS-T for 10 minutes each washing. Detection was performed by LAS 3000 using ECL solution.
On the technique in general: In western blotting, separated proteins are transferred to a membrane and probed.

The subject of data set [3] is tubulin acetylation (HDAC6). Description: Western blot of tubulin acetylation in RPMI8226 cells. It counts as cell-based. The note with it: 24 hours, FIG. 1. The procedure: as §2

T1 sequence (Q13547 whole entry): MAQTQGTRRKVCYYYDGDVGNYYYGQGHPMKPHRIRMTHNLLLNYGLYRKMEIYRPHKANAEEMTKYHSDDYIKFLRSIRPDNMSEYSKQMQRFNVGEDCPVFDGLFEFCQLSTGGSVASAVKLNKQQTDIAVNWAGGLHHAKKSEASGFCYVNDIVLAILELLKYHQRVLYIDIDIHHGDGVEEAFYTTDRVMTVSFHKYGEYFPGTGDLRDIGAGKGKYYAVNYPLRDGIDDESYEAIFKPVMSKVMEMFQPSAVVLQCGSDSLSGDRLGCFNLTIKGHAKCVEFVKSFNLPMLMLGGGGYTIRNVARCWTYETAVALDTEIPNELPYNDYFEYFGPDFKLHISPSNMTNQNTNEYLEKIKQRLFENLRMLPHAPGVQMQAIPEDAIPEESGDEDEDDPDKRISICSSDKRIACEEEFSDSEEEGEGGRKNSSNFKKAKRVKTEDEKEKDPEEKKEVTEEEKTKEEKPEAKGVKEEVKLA

The IC50 is the point on the concentration scale where inhibition reaches its midpoint. On to `Cc1c(Cc2ccc(C(=O)NO)cc2)c2ccccc2n1CC1CCN(CC(C)(C)F)CC1` [Compound 528, 4-((1-((1-(2-fluoro-2-methylpropyl)piperidin-4-yl)methyl)-2-methyl-1H-indol-3-yl)methyl)-N-hydroxybenzamide], for which the IC50 at HDAC1 amounted to 8 µM; on HDAC6 human recombinant, 74 nM. Further, the Kp in data set [1] was no less than 0.5. Moreover, the “compound concentration at which histone acetylation (HDAC1) appeared” value in data set [2] is “at least 3 uM”. Further, the “compound concentration at which tubulin acetylation (HDAC6) appeared” value in data set [3] was found to be 100 nM.
For the compound `Cc1c(Cc2ccc(C(=O)NO)cc2)c2ccccc2n1CC1CCN(CC2(F)CCCCC2)CC1` [Compound 698, 4-((1-((1-((1-Fluorocyclohexyl)methyl)piperidin-4-yl)methyl)-2-methyl-1H-indol-3-yl)methyl)-N-hydroxybenzamide], the IC50 on HDAC1 is greater than 10 µM; on HDAC6 human recombinant, 430 nM.
The matching figures for `Cc1c(Cc2ccc(C(=O)NO)cc2)c2ccccc2n1CC1CCN(CC(C)(C)F)C1` (centres unmarked) [Compound 713, 4-((1-((1-(2-Fluoro-2-methylpropyl)pyrrolidin-3-yl)methyl)-2-methyl-1H-indol-3-yl)methyl)-N-hydroxybenzamide]: greater than 10 µM and 246 nM.
For `Cc1c(Cc2ccc(C(=O)NO)cc2)c2ccccc2n1CC1CCN(CC2(C(F)(F)F)CCC2)CC1` [Compound 728, N-hydroxy-4-((2-methyl-1-((1-((1-(trifluoromethyl)cyclobutyl)methyl)piperidin-4-yl)methyl)-1H-indol-3-yl)methyl)benzamide] the same measures were greater than 10 µM and 1190 nM.
Turning to `CC(C)(F)CN1CCC(Cn2cc(C(O)c3ccc(C(=O)NO)cc3)c3cccnc32)CC1` (centres unmarked) [Compound 747, 4-((1-((1-(2-Fluoro-2-methylpropyl)piperidin-4-yl)methyl)-1H-pyrrolo[2,3-b]pyridin-3-yl)(hydroxy)methyl)-N-hydroxybenzamide], the IC50 against HDAC1 worked out at 6.1 µM; on HDAC6 human recombinant, 334 nM.
For `CC(C)(F)CN1CCC(Cn2cc(Cc3ccc(C(=O)NO)cc3)c3cccnc32)CC1` [Compound 748, 4-((1-((1-(2-Fluoro-2-methylpropyl)piperidin-4-yl)methyl)-1H-pyrrolo[2,3-b]pyridin-3-yl)methyl)-N-hydroxybenzamide] the same measures were 3.88 µM and 140 nM.
For `Cc1c(Cc2ccc(C(=O)NO)cc2)c2ccccc2n1CC1CN(CC2(F)COC2)C1` [Compound 749, 4-((1-((1-((3-Fluorooxetan-3-yl)methyl)azetidin-3-yl)methyl)-2-methyl-1H-indol-3-yl)methyl)-N-hydroxybenzamide] the same measures were 8.59 µM and 92 nM.
